Reference: ChEMBL document CHEMBL5257068, “Synthesis and biological evaluation of DIDS analogues as efficient inhibitors of RAD51 involved in homologous recombination” (Bioorg Med Chem Lett, 2023)

Tests used:
[1] = target: T1, DNA repair protein RAD51 homolog 1 (Homo sapiens, UniProt Q06609); assay: Inhibition of RAD51 (unknown origin) assessed as reduction in novel 58/33-dsDNA formation incubated for 1 hr by electrophoresis based DNA strand exchange assay
T1 sequence (Q06609 whole entry): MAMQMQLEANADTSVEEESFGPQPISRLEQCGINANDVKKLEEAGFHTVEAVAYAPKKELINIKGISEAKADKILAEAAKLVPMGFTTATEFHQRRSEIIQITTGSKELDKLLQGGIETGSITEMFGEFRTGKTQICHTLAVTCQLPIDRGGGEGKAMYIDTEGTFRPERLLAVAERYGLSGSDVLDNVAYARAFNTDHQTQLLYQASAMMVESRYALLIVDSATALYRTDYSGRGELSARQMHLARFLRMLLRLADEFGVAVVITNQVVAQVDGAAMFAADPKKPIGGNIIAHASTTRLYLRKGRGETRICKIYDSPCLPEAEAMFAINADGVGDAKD

[2] = target: T1, DNA repair protein RAD51 homolog 1; assay: Inhibition of RAD51 (unknown origin) using labeled 100-ss DNA as substrate assessed as reduction in DNA D-loop formation by [gamma-32P]ATP based scintillation counter method
DU-145 [3] = assay: Cytotoxicity against human DU-145 cells overexpressing RAD51 assessed as cell viability at 50 uM incubated for 72 hrs by MTT assay relative to control; format: functional; conditions: read-out: Activity
DU-145 [4] = assay: Cytotoxicity against human DU-145 cells overexpressing RAD51 assessed as cell viability at 1 uM incubated for 72 hrs by MTT assay relative to control; format: functional; conditions: read-out: Activity
DU-145 [5] = assay: Cytotoxicity against human DU-145 cells overexpressing RAD51 assessed as cell viability at 10 uM incubated for 72 hrs by MTT assay relative to control; format: functional; conditions: read-out: Activity
[6] = target: T1, DNA repair protein RAD51 homolog 1; assay: Inhibition of wild type human RAD51 expressed in Escherichia coli BL21-DE3 using 100 bp ssDNA probe as substrate assessed as prevention of D-loop formation preincubated for 5 mins followed by plasmid DNA addition and measured after 15 mins by agarose gel electrophoresis method
[7] = target: T1, DNA repair protein RAD51 homolog 1; assay: Inhibition of RAD51 (unknown origin) mediated homologous recombination

Structure (SMILES) | IC50 [1] | IC50 [2] | viability at 50 µM (DU-145 [3]) | viability at 1 µM (DU-145 [4]) | viability at 10 µM (DU-145 [5]) | other results
CC(=O)Nc1ccc(/C=C/c2ccc(NC(C)=O)cc2S(=O)(=O)O)c(S(=O)(=O)O)c1 | > 50 µM |  |  |  |  | 
CCOC(=O)Nc1ccc(/C=C/c2ccc(NC(=O)OCC)cc2S(=O)(=O)O)c(S(=O)(=O)O)c1 | > 50 µM |  |  |  |  | 
O=[N+]([O-])c1ccc(S(=O)(=O)Nc2ccc(/C=C/c3ccc(NS(=O)(=O)c4ccc([N+](=O)[O-])cc4)cc3S(=O)(=O)O)c(S(=O)(=O)O)c2)cc1 |  | > 50 µM |  |  |  | 
N#Cc1ccc(/C=C/c2ccc([N+](=O)[O-])cc2S(=O)(=O)O)c(S(=O)(=O)O)c1 |  | 20 µM | 88% | 90% | 85% | 
O=S(=O)(O)c1cc(I)ccc1/C=C/c1ccc(I)cc1S(=O)(=O)O | 17.5 µM |  | 84% | 91% | 89% | 
COS(=O)(=O)c1cc(NC(=O)Oc2ccccc2)ccc1/C=C/c1ccc(NC(=O)Oc2ccccc2)cc1S(=O)(=O)OC |  | > 50 µM |  |  |  | 
O=C(Nc1ccc(/C=C/c2ccc(NC(=O)Oc3ccccc3)cc2S(=O)(=O)O)c(S(=O)(=O)O)c1)Oc1ccccc1 | 3.8 µM | 2.3 µM | 87% | 100% | 100% | 
O=[N+]([O-])c1ccc(/C=C/c2ccc([N+](=O)[O-])cc2S(=O)(=O)O)c(S(=O)(=O)O)c1 |  | > 50 µM |  |  |  | 
N#Cc1ccc(CCc2ccc(C#N)cc2S(=O)(=O)O)c(S(=O)(=O)O)c1 |  | > 50 µM |  |  |  | 
[N-]=[N+]=Nc1ccc(/C=C/c2ccc(N=[N+]=[N-])cc2S(=O)(=O)O)c(S(=O)(=O)O)c1 | 10 µM | 21.5 µM | 93% | 87% | 94% | IC50 [6]: 44.3 µM
O=S(=O)(Nc1ccc(/C=C/c2ccc(NS(=O)(=O)c3ccccc3)cc2)cc1)c1ccccc1 |  | > 50 µM |  |  |  | 
CC(=O)Nc1ccc(/C=C/c2ccc(N=C=S)cc2S(=O)(=O)O)c(S(=O)(=O)O)c1 |  | 29 µM |  |  |  | IC50 [6]: 29 µM
Cc1ccc(S(=O)(=O)Nc2ccc(/C=C/c3ccc(NS(=O)(=O)c4ccc(C)cc4)cc3S(=O)(=O)O)c(S(=O)(=O)O)c2)cc1 |  |  | 100% | 100% | 100% | 
O=S(=O)(O)c1cc(N=C=S)ccc1/C=C/c1ccc(N=C=S)cc1S(=O)(=O)O | 0.75 µM | 0.9 µM | 83% | 90% | 87% | IC50 [6]: 0.9 µM
N#Cc1ccc(/C=C/c2ccc(C#N)cc2S(=O)(=O)O)c(S(=O)(=O)O)c1 | 1.3 µM | 4.9 µM | 100% | 99% | 94% | 
O=c1c2ccccc2nc(/C=C/c2cccnc2)n1Cc1ccccc1 |  |  | 9% | 95% | 79% | 
O=C(Nc1ccc(/C=C/c2ccc(NC(=O)c3ccccc3)cc2S(=O)(=O)O)c(S(=O)(=O)O)c1)c1ccccc1 | > 50 µM |  | 100% | 100% | 100% | 
[N-]=[N+]=Nc1ccc(/C=C/c2ccc(N=[N+]=[N-])cc2)cc1 |  | > 50 µM |  |  |  | 
O=C(Nc1ccc(/C=C/c2ccc(NC(=O)Oc3ccccc3)cc2)cc1)Oc1ccccc1 |  | 30.5 µM |  |  |  | 
O=C(Nc1ccc(CCc2ccc(NC(=O)Oc3ccccc3)cc2S(=O)(=O)O)c(S(=O)(=O)O)c1)Oc1ccccc1 |  | 30 µM |  |  |  | 
CC(C)COC(=O)Nc1ccc(/C=C/c2ccc(NC(=O)OCC(C)C)cc2S(=O)(=O)O)c(S(=O)(=O)O)c1 |  | > 50 µM |  |  |  | 
COc1ccc(C(=O)Nc2ccc(/C=C/c3ccc(NC(=O)c4ccc(OC)cc4)cc3S(=O)(=O)O)c(S(=O)(=O)O)c2)cc1 | 3 µM | 6.5 µM | 100% |  |  | 
CCC(=O)Nc1ccc(/C=C/c2ccc(NC(=O)CC)cc2S(=O)(=O)O)c(S(=O)(=O)O)c1 | > 50 µM |  |  |  |  | 
O=C1C(Cl)=C(N2CCOCC2)C(=O)N1c1ccc(Cl)c(Cl)c1 |  |  |  |  |  | IC50 [7]: 20 µM
